# According to paper PMC12281424, “A Rac-specific competitive inhibitor of guanine nucleotide binding reduces metastasis in triple-negative breast cancer” (Cell Reports Medicine, 2025):
# Assays:
# [1] = target: LTK(h) (Homo sapiens, UniProt P29376); assay: Kinase Profiler; format: biochemical
# Method: (§1) The kinase profiler was performed by the company Eurofins (Discovery, Panlab and Cerep).
# [2] = target: Abl (H396P) (h) (Homo sapiens, UniProt P00519, H396P); assay: Kinase Profiler; format: biochemical
# Method: as §1
# [3] = target: PKCδ(h) (Homo sapiens, UniProt Q05655); assay: Kinase Profiler; format: biochemical
# Method: as §1
# [4] = target: CaMKK1(h) (Homo sapiens, UniProt Q8N5S9); assay: Kinase Profiler; format: biochemical
# Method: as §1
# [5] = target: MAP4K4(h) (Homo sapiens, UniProt O95819); assay: Kinase Profiler; format: biochemical
# Method: as §1
# [6] = target: Mer(h) (Homo sapiens, UniProt Q12866); assay: Kinase Profiler; format: biochemical
# Method: as §1
# [7] = target: STK32A(h) (Homo sapiens, UniProt Q8WU08); assay: Kinase Profiler; format: biochemical
# Method: as §1
# [8] = target: T1, RAC1 (Mus musculus, UniProt P63001); assay: RAC-GTP pull-down assay, EGF-stimulated NIH/3T3 fibroblasts; format: cell-based; conditions: 10^-5 M, 1 h, EGF 10 ng/mL 5 min
# T1 construct: endogenous in cells; host or cells: NIH/3T3 fibroblasts (ATCC CRL-1658), EGF-stimulated
# Method: Figure 2 Identification of a new RAC1 inhibitor (A) Effect of A41 and NSC23766 on ruffle formation (white arrows) induced by EGF (10 ng/mL) in NIH 3T3 cells in serum-free culture medium (CTL). Inhibitors were added at indicated concentration 1 h prior to EGF stimulation. To assess cytoskeleton organization, cells were incubated with Alexa Fluor 488 phalloidin to visualize F-actin. Results shown are representative of 3 independent experiments. Corresponding concentration-response curves have been established by counting the percentages of cells with ruffles (scale bars: 10 μm). (B) Immunoblot analysis and associated quantification of RAC-GTP level and total RAC expression in NIH 3T3 cells stimulated by EGF (10 ng/mL, 5 min) and pre-incubated or not (−) with NSC23766, A41, or A415 at 10^−5 M for 1 h (∗∗∗p < 0.001 vs. controls without EGF stimulation, ^###p < 0.001 vs. controls with EGF stimulation) (N > 3). (C) Representative surface plasmon resonance (SPR) sensograms of binding of immobilized RAC1 with increasing concentrations of A41 with or without EDTA (20 mM) (N > 3). (D) Representative in vitro nucleotide exchange catalyzed by the DH-PH of TIAM (10 nM) measured by the binding of fluorescent mant-GTP (1 μM) to RAC1 (0.5 μM, preloaded with GDP) in the presence of indicated concentrations of A41 (out of N = 6). Dotted lines correspond to the experimental curves, and continuous lines represent the fit of experimental points. (E) Kobs and Kmax were determined in each condition (N = 6). (F) Predicted binding modes of A4 to the NSC23766-binding site (left) or the GDP-binding pocket of RAC1 (right). In the NSC23766-binding site of RAC1, the compound A4 (carbon atoms in blue) makes 2 hydrogen bonds (green dotted line) with Ser71 (S71) and 10 hydrophobic interactions (pink dotted line) with Ala3 (A3), Lys5 (K5), Val36 (V36), Trp56 (W56), Tyr64 (Y64), and Leu67 (L67) leading to a docking score of −6.03 kcal/mol. The GDP molecule is shown with fine line. The P loop is shown in yellow, the switch 1 in orange, and the switch 2 in green. […]
# Pull-down assay using GST-PBD fusion proteins were performed on NIH-3T3 lysates to assess RAC1 activity as previously described.[63] The precipitated active RAC was subjected to SDS-PAGE and detected by immunoblot with anti-RAC1 antibody (BD biosciences) (dilution 1/1000). […]
# screening molecules (10^-5 M) on NIH/3T3 cell adhesion (xCELLingence Real-time cellanalysis, Agilent), migration (CYTOO Mobility plates) and proliferation (xCELLingence Real-time cell analysis, Agilent) .The level of RAC activation is determinedby the detection of RAC-GTP (pull-down assay) in NIH/3T3 cell treated with EGF (10 ng/mL) and the differentmolecules and normalize to the level of RAC activity measuredin the presenceof the reference RAC inhibitor EHT1864.
# [9] = target: DDR2(h) (Homo sapiens, UniProt Q16832); assay: Kinase Profiler; format: biochemical
# Method: (§2) Blood cell counts, kinase profiler, safety screen, bacterial cytotoxicity, Ames, micronucleus assays were performed by the company Eurofins (France). The kinase profiler was performed by the company Eurofins (Discovery, Panlab and Cerep).
# [10] = target: Muscarinic M4 (Homo sapiens, UniProt P08173); assay: Safety screen; format: binding
# Method: Blood cell counts, kinase profiler, safety screen, bacterial cytotoxicity, Ames, micronucleus assays were performed by the company Eurofins (France).
# [11] = target: MKK4(m) (Mus musculus, UniProt P47809); assay: Kinase Profiler; format: biochemical
# Method: as §1
# [12] = target: ALK6(h) (Homo sapiens, UniProt O00238); assay: Kinase Profiler; format: biochemical
# Method: as §1
# [13] = target: Fes(h) (Homo sapiens, UniProt P07332); assay: Kinase Profiler; format: biochemical
# Method: as §1
# [14] = target: PI3K (p110b/p85b)(m) (Mus musculus, UniProt Q8BTI9); assay: Kinase Profiler; format: biochemical
# Method: as §2
# [15] = target: CaMKIγ(h) (Homo sapiens, UniProt Q96NX5); assay: Kinase Profiler; format: biochemical
# Method: as §1
# [16] = target: CDK5/p35(h) (Homo sapiens, UniProt Q00535); assay: Kinase Profiler; format: biochemical
# Method: as §2
# [17] = target: TAO3(h) (Homo sapiens, UniProt Q9H2K8); assay: Kinase Profiler; format: biochemical
# Method: as §2
# [18] = target: CDK14/cyclinY(h) (Homo sapiens, UniProt O94921); assay: Kinase Profiler; format: biochemical
# Method: as §2
# [19] = target: ACK1(h) (Homo sapiens, UniProt Q07912); assay: Kinase Profiler; format: biochemical
# Method: as §1
# [20] = target: CaMKIIβ(h) (Homo sapiens, UniProt Q13554); assay: Kinase Profiler; format: biochemical
# Method: as §1
# [21] = target: MYO3B(h) (Homo sapiens, UniProt Q8WXR4); assay: Kinase Profiler; format: biochemical
# Method: as §1
# Chain of Mer(h) (Q12866 21-999): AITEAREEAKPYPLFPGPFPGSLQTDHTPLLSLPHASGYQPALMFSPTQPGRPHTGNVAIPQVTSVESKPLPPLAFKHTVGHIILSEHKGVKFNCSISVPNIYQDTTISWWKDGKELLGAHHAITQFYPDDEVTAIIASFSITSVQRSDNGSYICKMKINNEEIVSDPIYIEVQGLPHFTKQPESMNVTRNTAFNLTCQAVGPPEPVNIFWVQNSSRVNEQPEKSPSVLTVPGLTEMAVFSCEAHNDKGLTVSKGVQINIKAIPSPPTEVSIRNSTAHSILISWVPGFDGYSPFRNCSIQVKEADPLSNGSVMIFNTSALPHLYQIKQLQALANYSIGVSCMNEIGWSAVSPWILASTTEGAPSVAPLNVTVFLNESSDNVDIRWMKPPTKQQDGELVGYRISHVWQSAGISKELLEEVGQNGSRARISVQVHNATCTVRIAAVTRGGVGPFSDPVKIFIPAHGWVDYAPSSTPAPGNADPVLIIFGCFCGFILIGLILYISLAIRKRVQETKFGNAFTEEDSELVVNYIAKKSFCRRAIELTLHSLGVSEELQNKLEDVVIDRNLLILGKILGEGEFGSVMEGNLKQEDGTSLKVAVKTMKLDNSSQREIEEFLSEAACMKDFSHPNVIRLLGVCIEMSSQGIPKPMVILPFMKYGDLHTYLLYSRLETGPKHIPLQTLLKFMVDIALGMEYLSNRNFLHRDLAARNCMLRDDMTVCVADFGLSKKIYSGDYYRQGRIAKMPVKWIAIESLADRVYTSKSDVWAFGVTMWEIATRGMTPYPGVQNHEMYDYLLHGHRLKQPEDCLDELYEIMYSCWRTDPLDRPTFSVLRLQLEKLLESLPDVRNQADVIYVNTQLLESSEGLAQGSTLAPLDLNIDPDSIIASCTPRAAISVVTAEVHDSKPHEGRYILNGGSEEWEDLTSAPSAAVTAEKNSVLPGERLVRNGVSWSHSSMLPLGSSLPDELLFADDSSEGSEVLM
# Chain of DDR2(h) (Q16832 22-855): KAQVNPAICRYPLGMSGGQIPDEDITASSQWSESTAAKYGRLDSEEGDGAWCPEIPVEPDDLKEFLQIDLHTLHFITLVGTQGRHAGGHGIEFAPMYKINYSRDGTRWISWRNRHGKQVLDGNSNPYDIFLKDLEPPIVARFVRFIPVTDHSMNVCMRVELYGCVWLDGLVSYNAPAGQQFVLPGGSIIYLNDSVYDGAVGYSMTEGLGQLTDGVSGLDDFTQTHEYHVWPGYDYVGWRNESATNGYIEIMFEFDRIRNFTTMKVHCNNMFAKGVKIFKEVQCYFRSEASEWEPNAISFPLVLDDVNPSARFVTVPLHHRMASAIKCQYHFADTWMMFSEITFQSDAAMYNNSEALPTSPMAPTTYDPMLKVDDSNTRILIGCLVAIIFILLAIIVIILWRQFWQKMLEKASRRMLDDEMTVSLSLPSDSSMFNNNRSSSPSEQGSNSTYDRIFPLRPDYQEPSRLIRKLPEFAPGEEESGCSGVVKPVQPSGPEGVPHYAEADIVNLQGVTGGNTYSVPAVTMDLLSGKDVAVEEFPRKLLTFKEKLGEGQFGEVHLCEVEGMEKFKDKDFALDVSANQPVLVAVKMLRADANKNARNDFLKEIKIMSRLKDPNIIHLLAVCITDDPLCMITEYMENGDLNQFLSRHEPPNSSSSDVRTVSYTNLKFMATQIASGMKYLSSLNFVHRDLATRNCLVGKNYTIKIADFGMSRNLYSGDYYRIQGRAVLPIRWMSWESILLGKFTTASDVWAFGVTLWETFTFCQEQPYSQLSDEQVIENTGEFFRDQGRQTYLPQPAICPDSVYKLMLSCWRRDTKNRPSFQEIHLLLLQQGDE
# Chain of CDK5/p35(h) (Q00535 whole entry): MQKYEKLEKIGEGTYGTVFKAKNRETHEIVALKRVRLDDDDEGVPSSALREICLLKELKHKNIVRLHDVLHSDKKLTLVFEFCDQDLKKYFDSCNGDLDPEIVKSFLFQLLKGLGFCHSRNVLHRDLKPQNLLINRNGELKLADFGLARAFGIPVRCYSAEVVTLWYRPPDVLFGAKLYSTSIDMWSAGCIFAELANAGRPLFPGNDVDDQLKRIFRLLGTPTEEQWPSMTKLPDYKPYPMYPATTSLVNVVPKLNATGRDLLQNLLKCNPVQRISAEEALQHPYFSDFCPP
# Chain of CDK5/p35(h) (Q15078 whole entry partner): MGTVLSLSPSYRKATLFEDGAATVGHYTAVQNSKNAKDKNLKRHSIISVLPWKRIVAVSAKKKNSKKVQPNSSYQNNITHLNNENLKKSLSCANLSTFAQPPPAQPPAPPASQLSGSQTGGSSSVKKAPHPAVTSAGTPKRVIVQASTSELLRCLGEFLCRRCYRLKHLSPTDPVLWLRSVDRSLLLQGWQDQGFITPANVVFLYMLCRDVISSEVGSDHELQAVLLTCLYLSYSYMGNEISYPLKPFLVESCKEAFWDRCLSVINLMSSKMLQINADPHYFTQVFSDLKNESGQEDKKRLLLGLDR
# Chain of MAP4K4(h) (O95819 whole entry): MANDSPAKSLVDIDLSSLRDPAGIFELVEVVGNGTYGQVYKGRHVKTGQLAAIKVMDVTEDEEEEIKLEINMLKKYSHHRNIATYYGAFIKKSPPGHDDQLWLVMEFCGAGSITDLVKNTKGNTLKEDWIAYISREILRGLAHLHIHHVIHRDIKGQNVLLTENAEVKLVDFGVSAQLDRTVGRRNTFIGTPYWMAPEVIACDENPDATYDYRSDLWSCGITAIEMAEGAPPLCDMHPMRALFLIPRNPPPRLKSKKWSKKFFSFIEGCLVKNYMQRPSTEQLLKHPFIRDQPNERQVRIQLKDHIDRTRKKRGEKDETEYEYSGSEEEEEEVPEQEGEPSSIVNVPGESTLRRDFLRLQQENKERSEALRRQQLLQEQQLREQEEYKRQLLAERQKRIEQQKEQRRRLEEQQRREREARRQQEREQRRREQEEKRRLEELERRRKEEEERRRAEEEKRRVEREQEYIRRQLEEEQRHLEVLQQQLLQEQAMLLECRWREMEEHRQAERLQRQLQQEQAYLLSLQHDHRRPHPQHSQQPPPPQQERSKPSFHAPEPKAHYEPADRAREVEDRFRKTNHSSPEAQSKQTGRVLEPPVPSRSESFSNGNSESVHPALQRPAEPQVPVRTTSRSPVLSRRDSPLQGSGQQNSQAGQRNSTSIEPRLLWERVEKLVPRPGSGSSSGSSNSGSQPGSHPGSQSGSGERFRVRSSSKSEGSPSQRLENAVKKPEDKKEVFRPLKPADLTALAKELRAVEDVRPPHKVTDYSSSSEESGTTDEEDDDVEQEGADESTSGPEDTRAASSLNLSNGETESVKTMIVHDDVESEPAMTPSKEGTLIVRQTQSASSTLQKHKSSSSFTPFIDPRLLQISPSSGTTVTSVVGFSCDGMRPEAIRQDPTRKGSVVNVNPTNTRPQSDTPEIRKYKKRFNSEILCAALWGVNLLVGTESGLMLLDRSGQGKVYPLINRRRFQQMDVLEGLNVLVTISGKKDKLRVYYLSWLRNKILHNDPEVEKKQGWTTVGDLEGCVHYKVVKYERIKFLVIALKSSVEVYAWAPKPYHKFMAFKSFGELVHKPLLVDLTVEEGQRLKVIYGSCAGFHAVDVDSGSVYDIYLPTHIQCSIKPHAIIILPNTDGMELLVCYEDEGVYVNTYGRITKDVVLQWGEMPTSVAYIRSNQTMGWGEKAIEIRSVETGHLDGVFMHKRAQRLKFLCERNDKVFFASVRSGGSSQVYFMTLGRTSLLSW
# Chain of CaMKIγ(h) (Q96NX5 whole entry): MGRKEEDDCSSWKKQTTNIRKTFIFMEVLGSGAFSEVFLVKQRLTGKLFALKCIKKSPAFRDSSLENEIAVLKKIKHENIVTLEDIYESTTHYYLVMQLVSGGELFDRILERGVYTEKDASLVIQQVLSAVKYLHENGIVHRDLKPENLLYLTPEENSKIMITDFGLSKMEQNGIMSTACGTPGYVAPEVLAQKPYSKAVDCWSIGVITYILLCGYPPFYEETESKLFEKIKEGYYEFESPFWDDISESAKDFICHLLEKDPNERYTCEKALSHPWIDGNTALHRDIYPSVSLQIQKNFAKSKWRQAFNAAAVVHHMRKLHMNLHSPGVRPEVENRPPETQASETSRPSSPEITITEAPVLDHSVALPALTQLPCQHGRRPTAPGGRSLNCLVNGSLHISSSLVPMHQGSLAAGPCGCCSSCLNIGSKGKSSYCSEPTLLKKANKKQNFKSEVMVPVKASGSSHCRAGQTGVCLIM
# Chain of LTK(h) (P29376 17-864): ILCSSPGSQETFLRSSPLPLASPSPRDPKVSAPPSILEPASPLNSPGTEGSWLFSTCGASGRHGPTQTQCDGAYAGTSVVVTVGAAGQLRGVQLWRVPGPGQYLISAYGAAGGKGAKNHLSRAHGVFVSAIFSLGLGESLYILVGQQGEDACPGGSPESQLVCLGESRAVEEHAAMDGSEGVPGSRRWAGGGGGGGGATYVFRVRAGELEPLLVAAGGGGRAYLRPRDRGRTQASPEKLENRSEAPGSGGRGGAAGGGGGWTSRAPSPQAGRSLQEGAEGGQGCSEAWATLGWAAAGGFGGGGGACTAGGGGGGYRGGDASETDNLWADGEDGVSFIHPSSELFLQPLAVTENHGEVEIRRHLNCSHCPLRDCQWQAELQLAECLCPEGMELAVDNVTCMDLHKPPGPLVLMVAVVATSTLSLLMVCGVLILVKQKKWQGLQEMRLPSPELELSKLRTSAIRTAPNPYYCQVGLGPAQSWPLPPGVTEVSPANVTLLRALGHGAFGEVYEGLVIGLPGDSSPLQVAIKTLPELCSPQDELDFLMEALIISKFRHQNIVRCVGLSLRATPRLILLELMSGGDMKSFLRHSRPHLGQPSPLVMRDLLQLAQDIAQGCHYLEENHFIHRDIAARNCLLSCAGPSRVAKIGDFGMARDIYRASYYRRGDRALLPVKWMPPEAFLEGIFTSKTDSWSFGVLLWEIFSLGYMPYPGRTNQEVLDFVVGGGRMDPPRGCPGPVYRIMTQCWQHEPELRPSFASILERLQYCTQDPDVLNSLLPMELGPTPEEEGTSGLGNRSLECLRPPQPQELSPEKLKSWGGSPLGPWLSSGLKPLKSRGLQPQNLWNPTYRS
smiles,measurement,setting,value
COc1ccc(OC)c(NS(=O)(=O)c2ccc(NC(=O)CCSc3ccc(C)cc3)cc2)c1 [Compound A41],Activity(%),[1],113%
same,Activity(%),[2],92%
same,Activity(%),[3],110%
same,Activity(%),[4],95%
same,Activity(%),[5],107%
same,Activity(%),[6],90%
same,Activity(%),[7],100%
same,RAC1 activation (active GTP-bound RAC1),[8],blocked RAC1 activation
same,Activity(%),[9],114%
same,% inh.,[10],-1%
same,Activity(%),[11],109%
same,Activity(%),[12],104%
same,Activity(%),[13],116%
same,Activity(%),[14],100%
same,Activity(%),[15],121%
same,Activity(%),[16],99%
same,Activity(%),[17],97%
same,Activity(%),[18],89%
same,Activity(%),[19],103%
same,Activity(%),[20],112%
same,Activity(%),[21],106%
